In patent US10106529B2, “Compounds that modulate intracellular calcium” (CalciMedica, Inc., priority 2011, dated 2018):

Columns and labels:
[1] = test system: RBL-2H3 cells; assay: Fluorescence-based assay of store-operated calcium entry in RBL-2H3 cells; format: cell-based, rat; details: Rattus norvegicus, thapsigargin, inhibition of Upslope of fluorescence after calcium addition, read-out: RBL-2H3 (IC50, μmol)
Protocol: (§1) Fluorescence-based assays are used for screening the compounds described herein, such as compounds of Formulas (I), (IA), (II), (IIA), (III), (IIIA), (IV), (IVA), (V), (VA), (VI), (VIA), (VII), (VIIA), (VIII), (VIIIA), (IX), (IXA), (X), (XI), (XIA), (XII), or (XIIA) which modulate intracellular calcium.
B. Fluorescence-Based Assay of Store-Operated Calcium Entry in RBL-2H3 Cells.
RBL-2H3 cells are obtained from ATCC and maintained in complete medium with 10% FBS at 37° C./6% CO2.
The day prior to performing the assay, RBL-2H3 cells are plated in 50 μL of complete medium in a 384 well plate. Cells are grown at 37° C./6% CO2 overnight and grow to 50-60% confluence by the next day. On the assay day, 1.5 µM Fluo-4-AM dye (Invitrogen) in complete medium is added and incubated for 1 hour at RT. Cells are washed twice in Ca^2+-free HBSS buffer and 35 μL Ca^2+-free HBSS buffer is added to each well. 10 μL of a test compound prepared in a Ca^2+-free HBSS solution at 4.5× of the desired concentration is added to a well and incubated for 5 minutes at RT. 10 μL of thapsigargin prepared in a Ca^2+-free HBSS solution at 5.5× of the desired concentration (5.5 uM) is added to each well and incubated for an additional 25 minutes. The initial baseline fluorescence signal is measured with a FLIPR^384 (Molecular Devices) plate reader. 5 μL of 12× calcium in HBSS (12 mM) is added and changes in cellular fluorescence are measured with the FLIPR^384 plate reader. In each well, the change in the fluorescent signal as a function of time due to calcium entry into the cell is determined by calculating the difference between the fluorescent signal measured 7 seconds after calcium addition and the initial baseline fluorescence signal at time zero (t=0). This parameter is designated Upslope. The IC50 value is calculated as the concentration at which 50% of the Upslope is inhibited.

[2] = target: T1, Orai1/STIM1 (Homo sapiens, UniProt Q96D31); assay: Fluorescence-based assay of store-operated calcium entry in Orai1/STIM1 stable cells; format: cell-based; set-up: key to Orai1/STIM1 (IC50, μmol): A, IC50 < 0.6 μM; B, IC50 = 0.6-1.2 μM; C, IC50 > 1.2 μM; — no fit; details: HEK-293 cells stably expressing human STIM1 and Orai1, inhibition of Peak-Basal fluorescence signal after calcium addition; for IC50: read-out: Orai1/STIM1 (IC50, μmol)
T1 construct: c-myc (C); expressed in transfected cells; host or cells: HEK-293 cells stably expressing recombinant human STIM1 and Orai1
T1 sequence (Q96D31 whole entry): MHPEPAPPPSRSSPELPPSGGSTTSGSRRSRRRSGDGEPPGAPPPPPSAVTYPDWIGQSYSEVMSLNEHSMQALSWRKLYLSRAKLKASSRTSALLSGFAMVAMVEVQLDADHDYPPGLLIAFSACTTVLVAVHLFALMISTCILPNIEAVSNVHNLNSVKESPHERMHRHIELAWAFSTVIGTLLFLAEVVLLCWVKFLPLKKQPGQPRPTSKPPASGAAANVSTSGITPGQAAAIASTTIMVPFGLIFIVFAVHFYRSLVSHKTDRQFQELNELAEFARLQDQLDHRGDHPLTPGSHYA
Excerpt: as §1
A. Fluorescence-Based Assay of Store-Operated Calcium Entry in Orai1/STIM1 Stable Cells.
Cells stably expressing recombinant human STIM1 and Orai1 are generated by transfecting a human Orai1 expression plasmid (pcDNA3.1-Orai1-cmyc) into HEK-293 cells stably overexpressing human STIM1 (Roos et al. 2005 JCB 169(3): 435-445). Colonies of cells stably expressing both STIM1 and Orai1 proteins are selected and then subcloned by limiting dilution. Cells were cultured at 37° C./6% CO2 in complete medium with 10% FBS and appropriate selection markers.
The day prior to performing the assay Orai1/STIM1 stable cells are plated in 50 μL of complete medium at 90-95% confluence in a 384 well plate. Cells are grown at 37° C./6% CO2 overnight. On the day of the assay, 1.5 μM fluo-4-AM (Invitrogen) in complete medium is added to the cells, which are then incubated for 1 hour at RT. Cells are washed once in Ca^2+-free HBSS (Hank's buffered saline solution) and 35 μl of Ca^2+-free HBSS is added to each well. Test compounds are added to wells in a 10 μL Ca^2+-free HBSS solution, prepared at 4.5× the desired final concentration, and incubated for 30 minutes at RT. The initial baseline fluorescence signal is then measured with a FLIPR^384 (Molecular Devices) plate reader. Calcium entry is initiated by adding 5 μl of 10×CaCl2 (10 mM) in HBSS, and changes in cellular fluorescence are measured with the FLIPR^384 plate reader. In each well, the magnitude of the fluorescence signal as a result of calcium entry into the cell is determined by calculating the difference between the peak fluorescence signal measured after calcium addition and the initial baseline fluorescence signal (designated Peak-Basal). IC50 values are typically calculated as the concentration that inhibited 50% of the Peak-Basal signal.

Structure (SMILES) | IC50 [1] | IC50 [2] | Orai1/STIM1 (IC50, μmol) [2]
Fc1cccc(F)c1CNc1ccc(-c2cc3c(cc2Cl)OC(F)(F)O3)cn1 [Compound 2, 5-(6-chloro-2,2-difluorobenzo[d][1,3]dioxol-5-yl)-N-(2,6-difluorobenzyl)pyridin-2-amine] | < 0.6 µM | 0.6 to 1.2 µM | 
Cc1cc2c(cc1-c1ccc(NCc3c(F)cccc3F)nc1)OC(F)(F)O2 [Compound 4, 5-(2,2-difluoro-6-methylbenzo[d][1,3]dioxol-5-yl)-N-(2,6-difluorobenzyl)pyridin-2-amine] | < 0.6 µM | 0.6 to 1.2 µM | 
Cc1cc2c(cc1-c1ccc(NCc3c(F)cccc3F)cn1)OC(F)(F)O2 [Compound 6, 6-(2,2-difluoro-6-methylbenzo[d][1,3]dioxol-5-yl)-N-(2,6-difluorobenzyl)pyridin-3-amine] | < 0.6 µM | < 0.6 µM | 
Fc1cccc(CNc2ccc(-c3cc4c(cc3Cl)OC(F)(F)O4)cn2)c1Cl [Compound 8, 5-(6-chloro-2,2-difluorobenzo[d][1,3]dioxol-5-yl)-N-(2-chloro-3-fluorobenzyl)pyridin-2-amine] | < 0.6 µM | > 1.2 µM | 
FC1(F)Oc2cc(Cl)c(-c3ccc(NCc4ccccc4Cl)nc3)cc2O1 [Compound 10, 5-(6-chloro-2,2-difluorobenzo[d][1,3]dioxol-5-yl)-N-(2-chlorobenzyl)pyridin-2-amine] | < 0.6 µM | > 1.2 µM | 
FC1(F)Oc2cc(Cl)c(-c3ccc(NCc4ccccc4C(F)(F)F)nc3)cc2O1 [Compound 12, 5-(6-chloro-2,2-difluorobenzo[d][1,3]dioxol-5-yl)-N-(2-(trifluoromethyl)benzyl)pyridin-2-amine] | < 0.6 µM |  | —
Fc1ccc(CNc2ccc(-c3cc4c(cc3Cl)OC(F)(F)O4)cn2)c(Cl)c1 [Compound 13] | < 0.6 µM | > 1.2 µM | 
COc1ccc(F)cc1CNc1ccc(-c2cc3c(cc2Cl)OC(F)(F)O3)cn1 [Compound 14] | < 0.6 µM |  | —
COc1ccccc1CNc1ccc(-c2cc3c(cc2Cl)OC(F)(F)O3)cn1 [Compound 15] | < 0.6 µM | > 1.2 µM | 
Fc1cccc(CNc2ccc(-c3cc4c(cc3Cl)OC(F)(F)O4)cn2)c1 [Compound 16] | < 0.6 µM | 0.6 to 1.2 µM | 
Cc1cc2c(cc1-c1ccc(NCc3c(F)cccc3F)nc1)CCC2 [Compound 17] | < 0.6 µM | 0.6 to 1.2 µM | 
Cc1ccc(F)cc1CNc1ccc(-c2cc3c(cc2C)CCC3)cn1 [Compound 18] | < 0.6 µM |  | —
Cc1ccccc1CNc1ccc(-c2cc3c(cc2C)OC(F)(F)O3)cn1 [Compound 19] | < 0.6 µM | < 0.6 µM | 
Cc1cc2c(cc1-c1ccc(NCc3ccccc3Cl)nc1)OC(F)(F)O2 [Compound 20] | < 0.6 µM | > 1.2 µM | 
Cc1cc2c(cc1-c1ccc(NCc3ccccc3F)nc1)OC(F)(F)O2 [Compound 21] | < 0.6 µM | < 0.6 µM | 
Cc1cc2c(cc1-c1ccc(NCc3c(F)cccc3Cl)nc1)OC(F)(F)O2 [Compound 22] | < 0.6 µM | > 1.2 µM | 
Cc1cc2c(cc1-c1cnc(NCc3c(F)cc(F)cc3F)cn1)OC(F)(F)O2 [Compound 23] | < 0.6 µM | 0.6 to 1.2 µM | 
Cc1cc2c(cc1-c1ccc(NCc3c(F)cc(F)cc3F)nc1)OC(F)(F)O2 [Compound 24] | < 0.6 µM |  | 
Cc1cc2c(cc1-c1ccc(NCc3c(F)ccc(F)c3F)nc1)OC(F)(F)O2 [Compound 25] | < 0.6 µM |  | 
Cc1sc(C(F)(F)F)nc1-c1ccc(NCc2ccccc2F)nc1 [Compound 26] | < 0.6 µM |  | 
Cc1sc(C(F)(F)F)nc1-c1ccc(NCc2c(F)cc(F)cc2F)nc1 [Compound 27] | < 0.6 µM |  | 

Structure (SMILES) | IC50 [1] | IC50 [2] | Orai1/STIM1 (IC50, μmol) [2]
Cc1cc2c(cc1-c1cnc(NCc3c(F)cccc3F)nc1)OC(F)(F)O2 [Compound 32, 5-(2,2-difluoro-6-methyl-1,3-benzodioxol-5-yl)-N-[(2,6-difluorophenyl)methyl]pyrimidin-2-amine] | < 0.6 µM |  | 
Cc1cc2c(cc1-c1ccc(NCc3c(F)cccc3F)nc1)OCCO2 [Compound 37, N-(2,6-difluorobenzyl)-5-(7-methyl-2,3-dihydrobenzo[b][1,4]dioxin-6-yl)pyridin-2-amine] | < 0.6 µM | 0.6 to 1.2 µM | 
Fc1cccc(F)c1CNc1ccc(-c2cc3c(cc2Cl)OCCO3)cn1 [Compound 42, 5-(7-chloro-2,3-dihydrobenzo[b][1,4]dioxin-6-yl)-N-(2,6-difluorobenzyl)pyridin-2-amine] | < 0.6 µM | > 1.2 µM | 
Fc1cccc(F)c1CNc1ccc(-c2nc3c(cc2Cl)OCCO3)cn1 [Compound 45, 5-(7-chloro-2,3-dihydro-[1,4]dioxino[2,3-b]pyridin-6-yl)-N-(2,6-difluorobenzyl)pyridin-2-amine] | < 0.6 µM |  | 
Cc1cc(F)ccc1CNc1ccc(-c2nc3c(cc2Cl)OCCO3)cn1 [Compound 46] | < 0.6 µM | 0.6 to 1.2 µM | 
Cc1cc2c(cc1-c1cnc(OCc3c(F)cccc3F)nc1)OC(F)(F)O2 [Compound 62] | 0.6 to 1.2 µM |  | 
Cn1nc(C(F)(F)F)cc1-c1cnc(OCc2c(F)cccc2F)nc1 [Compound 63] | > 1.2 µM |  | 
Cc1cc2c(cc1-c1ccc(OCc3c(F)cccc3F)nc1)OC(F)(F)O2 [Compound 66] | < 0.6 µM |  | 
Cn1nc(C(F)(F)F)cc1-c1ccc(OCc2c(F)cccc2F)nc1 [Compound 67] | 0.6 to 1.2 µM |  | 
Cn1nc(C(F)(F)F)cc1-c1ccc(NCc2c(F)cc(F)cc2F)cn1 [Compound 87] | < 0.6 µM |  | 
CCn1nc(C(F)(F)F)cc1-c1ccc(NCc2ccccc2F)cn1 [Compound 88] | < 0.6 µM |  | 
CCn1nc(C(F)(F)F)cc1-c1ccc(NCc2c(F)cccc2F)cn1 [Compound 89] | < 0.6 µM |  | 
Cn1nc(C(F)(F)F)cc1-c1ncc(NCc2c(F)cccc2F)cc1F [Compound 91] | < 0.6 µM |  | 
Cn1nc(C(F)(F)F)cc1-c1cnc(NCc2c(F)cccc2F)nc1 [Compound 94, N-(2,6-difluorobenzyl)-5-(1-methyl-3-(trifluoromethyl)-1H-pyrazol-5-yl)pyrimidin-2-amine] | < 0.6 µM |  | 
Fc1ccc(C(F)(F)F)c(Oc2ccc(NCc3c(F)cccc3F)nc2)c1 [Compound 133, N-(2,6-difluorobenzyl)-5-(5-fluoro-2-(trifluoromethyl)phenoxy)pyridin-2-amine] | < 0.6 µM |  | 
CCc1ccccc1Oc1ccc(NCc2c(F)cc(F)cc2F)nc1 [Compound 136] | > 1.2 µM |  | 
CCc1ccccc1Oc1ccc(NCc2c(F)cccc2F)nc1 [Compound 137] | > 1.2 µM |  | 
Fc1cc(F)c(CNc2ccc(Oc3cc(F)ccc3C(F)(F)F)cn2)c(F)c1 [Compound 138] | < 0.6 µM |  | 
Fc1ccc(C(F)(F)F)c(Oc2ccc(NCc3c(F)cncc3F)nc2)c1 [Compound 139] | < 0.6 µM |  | 
Fc1cc(F)c(CNc2ccc(Oc3cc(C(F)(F)F)ccc3C(F)(F)F)cn2)c(F)c1 [Compound 140] | 0.6 to 1.2 µM |  | 
Fc1cccc(F)c1CNc1ccc(Oc2cc(C(F)(F)F)ccc2C(F)(F)F)cn1 [Compound 141] | < 0.6 µM |  | 
